We go through 1 compound from ChEMBL document CHEMBL1136841, “Discovery of 2-(alpha-methylbenzylamino) pyrazines as potent Type II inhibitors of FMS” (Bioorg Med Chem Lett, 2009).

Each structure is given as a SMILES string.

For data set [1], the system named is Rattus norvegicus. Description: Half life in rat at 5 mg/kg, iv. Type of data set: ADME, organism-based. On the set-up: dose 5 mg/kg, route intravenous. To be noted: in vivo.
Data set [2] relates to Rattus norvegicus. Description: Apparent volume of distribution in rat at 5 mg/kg, iv. The format is ADME, organism-based. Details: dose 5 mg/kg, route intravenous. To be noted: in vivo.

`Cc1cccc(C(=O)Nc2cccc([C@H](C)Nc3cncc(Cl)n3)c2)c1` displayed a t1/2 in the data set with Rattus norvegicus [1] of 5.9 h. Further, the Vz with Rattus norvegicus [2] was found to be 30.2 L/kg.
